Assay results: US11477967B2, “Microfluidic device, system and methods thereof for measuring and recording electrical signals from a pool of multiple nematodes” (NemaMetrix Inc., priority 2018, dated 2022)

What was measured:
Assay type in all cases: in vivo, C. elegans
[1] = tested on: pool of multiple nematodes; assay: composite EPG from a pool of multiple nematodes, microfluidic device 500 / system 600, Solution A versus Solution B; conditions: same pool of nematodes; Solution A normal M9 buffer 16 min, Solution B serotonin M9 buffer 25 min; FIG. 7C
Description: To obtain nematodes of a consistent size that were compatible with the dimensions of the recording channel 515, we used the method of Example 2. Alternative methods using filters can also be used to obtain an age/size synchronized population of nematodes for use. See US Patent Publ. No. 2019/0090458.
To prepare nematodes for recording, we used the method of Example 2, except that the final resuspension used “normal M9 buffer solution,” defined in Table 3.
For filling the microfluidic device, we used the method of Example 2, except that the syringe and tubing were filled with “normal M9 buffer solution.”
At the end of this recording, the normal M9 buffer solution was replaced with Solution B, serotonin M9 buffer solution disclosed in Example 1, without dislodging the original pool of nematodes. Replacement was accomplished by exchanging the syringe and tubing filled with normal M9 buffer solution for a syringe and tubing filled with serotonin M9 buffer solution. […]
The center frequency of this peak is within the expected range of pharyngeal pumping frequency. […] However, as the same population of nematodes was recorded under conditions of the two different buffer solutions in FIG. 7C, but not in FIG. 4C, FIG. 7C establishes, in addition, that the system 600 can be used to measure the effect of drugs or other test compounds on pharyngeal pumping. […]

[2] = tested on: pool of multiple nematodes; assay: composite EPG from a pool of multiple nematodes, microfluidic device 100 / system 200; conditions: approximately 25 nematodes between electrodes, serotonin M9 buffer solution (10 mM serotonin); peak absent in normal M9 buffer; FIG. 4C
Method: (§1) To obtain nematodes of a consistent size that were compatible with the dimensions of the recording channel 120, we utilized a common procedure to obtain a large number of age synchronized eggs. Eggs were deposited in a culture plate containing food and cultivated at 20 C for 3 days, yielding a large population of young adult nematodes.
To prepare nematodes for recording, 2 mL of “normal M9 buffer solution,” defined in Table 3, was added to a culture plate containing young adult nematodes grown from synchronized eggs. The plate was swirled to lift nematodes into the solution and the contents were poured into a 2 mL Eppendorf tube. Nematodes were cleaned of adherent bacteria and debris by 5 cleaning cycles each of which involved pelleting nematodes in a centrifuge (1.2 g, 30 sec), drawing off the supernatant, and resuspending in M9 buffer. To stimulate pharyngeal pumping, the final resuspension used “serotonin M9 buffer solution” which contained 10 mM serotonin in addition to the constituents in Table 3. […]
Two lines of evidence indicate that the recorded activity represents pharyngeal pumping.

nematodes = assay: single-nematode EPG recordings (ScreenChip System) and synthetic composite EPG summed from them
Method: as §1
To prepare nematodes for recording, 2 mL of “normal M9 buffer solution,” defined in Table 3, was added to a culture plate containing young adult nematodes grown from synchronized eggs. The plate was swirled to lift nematodes into the solution and the contents were poured into a 2 mL Eppendorf tube. Nematodes were cleaned of adherent bacteria and debris by 5 cleaning cycles each of which involved pelleting nematodes in a centrifuge (1.2 g, 30 sec), drawing off the supernatant, and resuspending in M9 buffer. […]
According to circuit theory, (i) the waveform of a composite EPG recorded at electrodes 135 and 145 should be the sum of the voltage differences generated by each nematode at its unique location and orientation with respect to the electrodes and other nematodes, and (ii) the peak frequency of the waveform's power spectrum should represent the average pumping frequency of the population of nematodes between the electrodes. […]

SMILES: NCCc1c[nH]c2ccc(O)cc12 [serotonin]
- center frequency of peak of difference trace between power spectra of Solution B and Solution A [1]: 5 Hz
- peak of power spectrum of composite EPG [2]: 5.6 Hz
- average pumping frequency (nematodes; 22 nematodes, single-nematode EPGs in serotonin M9 buffer solution (10 mM serotonin), 10-14 min, ± SEM): 4.9±0.13 Hz
- peak frequency of power spectrum of synthetic (in silico) composite EPG recording (nematodes; sum of all 22 single-nematode EPG measurements in serotonin M9 buffer solution (10 mM serotonin), FIG. 3E): 5.1 Hz
